Experimental data taken from article doi:10.1101/2025.10.23.684218v2, “Development of a dual chemical probe for the USP16 and HDAC6 zinc-finger ubiquitin-binding domain” (biorxiv, 2025).

Key:
USP16-UBD (USP16 25-185) [1] = molecular target: T1, USP16-UBD (USP16 25-185) (Homo sapiens, UniProt Q9Y5T5); assay: biochemical; design: SPR, steady-state binding to immobilised biotinylated UBD proteins; settings: read-out: SPR Kd µM (USP16)
USP16-UBD (USP16 25-185) [2] = molecular target: T1, USP16-UBD (USP16 25-185); assay: SPR, steady state; assay type: binding
[3] = molecular target: T2, HDAC6-UBD (HDAC6 1109-1215) (Homo sapiens, UniProt Q9UBN7); assay: SPR, steady state; assay type: binding
T2 sequence (Q9UBN7 1109-1215): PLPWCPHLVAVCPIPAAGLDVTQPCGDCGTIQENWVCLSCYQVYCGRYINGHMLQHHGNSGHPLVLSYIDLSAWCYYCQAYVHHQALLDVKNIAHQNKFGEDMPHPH

[4] = molecular target: T2, HDAC6-UBD (HDAC6 1109-1215); assay: biochemical; design: SPR, steady-state binding to immobilised biotinylated UBD proteins; settings: read-out: SPR Kd µM (HDAC6)
[5] = molecular target: T2, HDAC6-UBD (HDAC6 1109-1215); assay: SPR, steady state; assay type: binding; settings: pH […] °C, […] DMSO
USP16-UBD (USP16 25-185) [6] = molecular target: T1, USP16-UBD (USP16 25-185); assay: SPR, steady state; assay type: binding; settings: pH […] °C, […] DMSO

T1 sequence (Q9Y5T5 25-185): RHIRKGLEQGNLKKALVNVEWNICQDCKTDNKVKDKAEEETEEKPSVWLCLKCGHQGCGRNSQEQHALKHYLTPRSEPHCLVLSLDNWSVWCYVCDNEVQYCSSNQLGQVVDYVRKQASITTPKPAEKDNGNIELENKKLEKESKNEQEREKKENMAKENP

Compound	Kd (USP16-UBD (USP16 25-185) [2]) [nM]	Kd [3] [nM]	also measured
COc1ccccc1CNC(=O)Cn1c(CCC(=O)O)nc2c(F)cccc2c1=O [UBXXML299]			Kd (USP16-UBD (USP16 25-185) [1]): 11 µM
O=C(O)CCc1nc2c(Cl)cccc2c(=O)n1CC(=O)NCC1CCCOC1 (stereo not shown) [compound 6, 3-(8-Chloro-4-oxo-3-(2-oxo-2-(((tetrahydro-2H-pyran-3-yl)methyl)amino)ethyl)-3,4-dihydroquinazolin-2-yl)propanoic Acid]	7800 ± 990	2100 ± 70	
O=C(O)CCc1nc2c(Cl)cccc2c(=O)n1CC(=O)NCc1ccccc1F [compound 10]	400 ± 150		
Cn1c(CCC(=O)O)nc2ccccc2c1=O [DATR31]			Kd (USP16-UBD (USP16 25-185) [1]): 130 µM; Kd [4]: 2.7 µM
CCOc1ccccc1CNC(=O)Cn1c(CCC(=O)O)nc2c(Cl)cccc2c1=O [compound 7, 3-(8-chloro-3-(2-((2-ethoxybenzyl)amino)-2-oxoethyl)-4-oxo-3,4-dihydroquinazolin-2-yl)propanoic acid]	2900 ± 1200	650 ± 270	
C[C@H](NC(=O)Cn1c(CCC(=O)O)nc2c(Cl)cccc2c1=O)c1ccccc1F [compound 12, (S)-3-(8-Chloro-3-(2-((1-(2-fluorophenyl)ethyl)amino)-2-oxoethyl)-4-oxo-3,4-dihydroquinazolin-2-yl)propanoic Acid]	210 ± 30	50 ± 10	
O=C(O)CCc1nc2ccccc2c(=O)n1CC(=O)NCC1CCCCC1 [UBXXML9098]			Kd (USP16-UBD (USP16 25-185) [1]): 4.8 µM
O=C(O)CCc1nc2c(Cl)cccc2c(=O)n1CC(=O)NCc1ccccc1Cl [compound 9]	1200 ± 600		
COc1ccccc1C(C)N(C)C(=O)Cn1c(CCC(=O)O)nc2c(Cl)cccc2c1=O (stereo not shown) [compound 4, 3-(8-chloro-3-(2-((1-(2-methoxyphenyl)ethyl)(methyl)amino)-2-oxoethyl)-4-oxo-3,4-dihydroquinazolin-2-yl)propanoic acid]			KD [5]: complete loss of binding activity for both USP16-UBD and HDAC6-UBD; KD (USP16-UBD (USP16 25-185) [6]): complete loss of binding activity for both USP16-UBD and HDAC6-UBD
CN(Cc1ccccc1F)C(=O)Cn1c(CCC(=O)O)nc2c(Cl)cccc2c1=O [compound 11, 3-(8-Chloro-3-(2-((2-fluorobenzyl)(methyl)amino)-2-oxoethyl)-4-oxo-3,4-dihydroquinazolin-2-yl)propanoic Acid]	2500 ± 340	32300 ± 18200	
COc1ccccc1CNC(=O)Cn1c(CCC(=O)O)nc2ccccc2c1=O [UBXXML264]			Kd (USP16-UBD (USP16 25-185) [1]): 13 µM
Cc1ccccc1CNC(=O)Cn1c(CCC(=O)O)nc2c(Cl)cccc2c1=O [compound 8]	1800 ± 960		
CC(NC(=O)Cn1c(CCC(=O)O)nc2c(Cl)cccc2c1=O)c1c(F)cccc1F (stereo not shown) [compound 14, 3-(8-chloro-3-(2-((1-(2,6-difluorophenyl)ethyl)amino)-2-oxoethyl)-4-oxo-3,4-dihydroquinazolin-2-yl)propanoic acid]	< 100		
C[C@@H](c1ccccc1F)N(C)C(=O)Cn1c(CCC(=O)O)nc2c(Cl)cccc2c1=O [compound 13, (S)-3-(8-Chloro-3-(2-((1-(2-fluorophenyl)ethyl)(methyl)amino)-2-oxoethyl)-4-oxo-3,4-dihydroquinazolin-2-yl)propanoic Acid]	2900 ± 490	31300 ± 2500	
COc1ccccc1C(C)NC(=O)Cn1c(CCC(=O)O)nc2c(Cl)cccc2c1=O (stereo not shown) [compound 3, 3-(8-chloro-3-(2-((1-(2-methoxyphenyl)ethyl)amino)-2-oxoethyl)-4-oxo-3,4-dihydroquinazolin-2-yl)propanoic acid]	440	50 ± 30	
COc1ccccc1CN(C)C(=O)Cn1c(CCC(=O)O)nc2c(Cl)cccc2c1=O [compound 2]	5600 ± 2100		
O=C(O)CCc1nc2ccccc2c(=O)n1CC(=O)NCc1ccccc1 [UBXXML47]			Kd (USP16-UBD (USP16 25-185) [1]): 11 µM
